Laboratory results from patent EP2975030B1, “DIHYDROPYRIDAZINE-3,5-DIONE DERIVATIVE” (Chugai Seiyaku Kabushiki Kaisha, priority 2013, dated 2014).

Tested on: rat small-intestinal brush border membrane vesicles
Assay: Inhibitory effect on 33PO4 uptake into rat small-intestinal brush border membrane vesicles (rapid filtration method)
Assay type: biochemical, Wistar female rat
Conditions: 1 µM test compound; 33PO4 uptake into rat small-intestinal BBMVs, 60 seconds
Method in brief: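 Uptake was terminated by ice-cold 110 mM NaCl, 1 mM KH2PO4, 10 mM HEPES (pH 7.5) buffer and immediate suction filtration, then washing. Using rat small-intestinal BBMVs, retained 33PO4 was quantified by liquid scintillation counting as transport activity.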

SMILES	Rate of uptake inhibition (%) (1 µM)
CCC1(CC)C(O)=C(C(=O)Nc2ccc(C(F)(F)F)cc2-c2cc(C(F)(F)F)ncn2)C(=O)N(Cc2ccc(OCCN3CCOCC3)c(F)c2F)N1C [Example 291]	47
CCC1(CC)C(O)=C(C(=O)Nc2ccc(Cl)cc2-c2cc(C(F)(F)F)ncn2)C(=O)N(Cc2ccc(OCCN3CCOCC3)c(F)c2F)N1C [Example 292]	44
CCC1(CC)C(O)=C(C(=O)Nc2ccc(C(F)(F)F)cc2-c2ccc(C(F)(F)F)nc2)C(=O)N(Cc2ccc(OCCN3CCOCC3)c(F)c2F)N1C [Example 293]	47
CCC1(CC)C(O)=C(C(=O)Nc2ccc(Cl)cc2-c2ccc(C(F)(F)F)nc2)C(=O)N(Cc2ccc(OCCN3CCOCC3)c(F)c2F)N1C [Example 294]	40
CN1N(Cc2ccc(OCCN3CCOCC3)c(F)c2F)C(=O)C(C(=O)Nc2ccc(C(F)(F)F)cc2-c2cc(C(F)(F)F)ncn2)=C(O)C12CCCCC2 [Example 295]	21
Cc1c(-c2cc(C(F)(F)F)ccc2NC(=O)C2=C(O)C3(CCCCC3)N(C)N(Cc3ccc(OCCN4CCOCC4)c(F)c3F)C2=O)ncnc1C(F)(F)F [Example 296]	17
CN1N(Cc2ccc(OCCN3CCOCC3)c(F)c2F)C(=O)C(C(=O)Nc2ccc(Cl)cc2-c2cc(C(F)(F)F)ncn2)=C(O)C12CCCCC2 [Example 297]	36
CN1N(Cc2ccc(OCCN3CCOCC3)c(F)c2F)C(=O)C(C(=O)Nc2ccc(Br)c(C(F)(F)F)n2)=C(O)C12CCCCC2 [Example 298]	10
CC1(C)C(O)=C(C(=O)Nc2ccc(C(F)(F)F)cc2-c2cc(C(F)(F)F)ncn2)C(=O)N(Cc2cccc(F)c2F)N1c1ccccc1 [Example 299]	45
CN1N(Cc2cccc(F)c2F)C(=O)C(C(=O)Nc2ccc(C(F)(F)F)cc2-c2cc(C(F)(F)F)ncn2)=C(O)C12CCC2 [Example 300]	74
CN1N(Cc2cccc(F)c2F)C(=O)C(C(=O)Nc2ccc(C(F)(F)F)cc2-c2ccc(C(F)(F)F)nc2)=C(O)C12CCC2 [Example 301]	79
COc1cc(-c2cc(C(F)(F)F)ccc2NC(=O)C2=C(O)C(C)(C)N(C)N(Cc3cccc(F)c3F)C2=O)cnc1C#N [Example 302]	79
CN1N(Cc2cccc(F)c2F)C(=O)C(C(=O)Nc2ccc(C(F)(F)F)cc2-c2cc(C#N)ncn2)=C(O)C1(C)C [Example 303]	42
CN1N(Cc2cccc(F)c2F)C(=O)C(C(=O)Nc2ccc(C(F)(F)F)nc2-c2ccc(C(F)(F)F)nc2)=C(O)C1(C)C [Example 304]	51
CN1N(Cc2cccc(F)c2F)C(=O)C(C(=O)Nc2ccc(C(F)(F)F)cc2-c2cncc(C(F)(F)F)c2)=C(O)C1(C)C [Example 305]	66
CN1N(Cc2cccc(F)c2F)C(=O)C(C(=O)Nc2ccc(C(F)(F)F)nc2-c2cncc(C(F)(F)F)c2)=C(O)C1(C)C [Example 306]	58
CN1N(Cc2cccc(F)c2F)C(=O)C(C(=O)Nc2cc(C(F)(F)F)ccc2-c2ccc(C(F)(F)F)nc2)=C(O)C1(C)C [Example 307]	41
CN1N(Cc2cccc(F)c2F)C(=O)C(C(=O)Nc2ccc(C(F)(F)F)cc2-c2ccc(S(=O)(=O)N(C)C)cc2)=C(O)C1(C)C [Example 308]	63
CN1N(Cc2cccc(F)c2F)C(=O)C(C(=O)Nc2ccc(Cl)cc2-c2ccc(C(F)(F)F)nc2)=C(O)C1(C)C [Example 309]	68
CSc1ccc(-c2cc(C(F)(F)F)ccc2NC(=O)C2=C(O)C(C)(C)N(C)N(Cc3cccc(F)c3F)C2=O)cn1 [Example 310]	63
Cc1c(C#N)ncnc1-c1cc(C(F)(F)F)ccc1NC(=O)C1=C(O)C(C)(C)N(C)N(Cc2cccc(F)c2F)C1=O [Example 311]	65
